Measured values published in patent US20230391775A1, “SUBSTITUTED DIARYLAMINE COMPOUND, PHARMACEUTICAL COMPOSITION THEREOF, PREPARATION METHOD THEREFOR, AND USE THEREOF” (SUZHOU YABAO PHARMACEUTICAL R&D CO., LTD., priority 2020, published 2023).

Molecular target: LRRK2 G2019S (Homo sapiens (Human), UniProt Q5S007, G2019S)
Assay: Adapta kinase assay (LRRK2_IC50 assay)
Type: biochemical
Details: Adapta TR-FRET, 1 h, room temperature
Description: In the Adapta™ kinase assay method (LRRK2_IC50 assay): the kinase reaction buffer contained kinase buffer S (Life Technologies, PV5213) and 2 mM DTT (Life Technologies, P2325). The kinases LRRK2 G2019S protein (PV4881) and ERM (LRRKtide, PV5093) were derived from Life Technologies. The Adapta™ universal kinase assay kit (Life Technologies, PV5099) contained the following components: Adapta™ Eu-anti-ADP antibody (PV5097; 4 μg); 10 μM AlexaFluor®647 ADP tracer (PV5098; 200 pmol); TR-FRET dilution buffer (PV3574; 100 mL); kinase quench buffer (P2825; 1 mL); 10 mM ATP (PV3227; 500 μL); and 10 mM ADP (PV5096; 500 μL). LRRK2-IN-1 (1234480-84-2, HY-10875) was derived from MedChem Express.
Adapta™ Kinase Assay Method
Adapta® universal kinase assay method is a uniform fluorescence-based immunoassay for detecting ADP. In contrast to ATP consumption assay, Adapta® assay method was very sensitive to ADP formation, with most signal changes occurring when initially 10-20% ATP was converted to ADP. This made Adapta® universal kinase assay method very suitable for low-activity kinases.
All assays were performed at room temperature (about 21° C.) and were linearly related to time and enzyme concentration under the conditions used. 1× kinase reaction buffer was prepared from 5× kinase buffer S stock solution (listed above), and 10 mL of 1× kinase reaction buffer was prepared by the addition of 2 mL of 5× stock solution to 8 mL of H2O. To the 1× kinase reaction buffer was added 20 μL of 1 M DTT.
A kinase reaction was performed in a low-volume 384-well plate in a volume of 10 μL. Typically, a Greiner plate was used (Catalog #3674 #, low volume, white wall, 784075). Other untreated assay plates that were not tested could also be suitable. The substrate concentration in the assay was 100 μM, and the 1× kinase reaction buffer consisted of 50 mM Tris-HCl (pH 8.5), 10 mM MgCl2, 1 mM EGTA, 0.01% Brij-35 and 2 mM DTT, as well as any other additives that could be necessary for the particular kinase. The kinase reaction was allowed to proceed for 1 h at room temperature, followed by the addition of a formulation of kinase quenching buffer (EDTA; 30 mM), Eu-labeled antibody (6 nM), and tracer (18.9 nM) in TR-FRET dilution buffer (5 μL). The final concentration of the antibody in the assay wells was 2 nM, the final concentration of the tracer was 6.3 nM, and the final concentration of EDTA was 10 mM. The plate was allowed to equilibrate at room temperature for at least 30 min and then read on a plate reader configured for Adapta™ TR-FRET.
The data provided in this document were generated by using BMG LABTECH PHERAstar plate reader and using appropriate filters and instrument settings for Adapta™. Test compounds were screened in wells with 1% DMSO (final). For 8-point titration, a 5-fold serial dilution was made on the basis of a starting concentration.

Chain of LRRK2 G2019S (Q5S007 whole entry G2019S): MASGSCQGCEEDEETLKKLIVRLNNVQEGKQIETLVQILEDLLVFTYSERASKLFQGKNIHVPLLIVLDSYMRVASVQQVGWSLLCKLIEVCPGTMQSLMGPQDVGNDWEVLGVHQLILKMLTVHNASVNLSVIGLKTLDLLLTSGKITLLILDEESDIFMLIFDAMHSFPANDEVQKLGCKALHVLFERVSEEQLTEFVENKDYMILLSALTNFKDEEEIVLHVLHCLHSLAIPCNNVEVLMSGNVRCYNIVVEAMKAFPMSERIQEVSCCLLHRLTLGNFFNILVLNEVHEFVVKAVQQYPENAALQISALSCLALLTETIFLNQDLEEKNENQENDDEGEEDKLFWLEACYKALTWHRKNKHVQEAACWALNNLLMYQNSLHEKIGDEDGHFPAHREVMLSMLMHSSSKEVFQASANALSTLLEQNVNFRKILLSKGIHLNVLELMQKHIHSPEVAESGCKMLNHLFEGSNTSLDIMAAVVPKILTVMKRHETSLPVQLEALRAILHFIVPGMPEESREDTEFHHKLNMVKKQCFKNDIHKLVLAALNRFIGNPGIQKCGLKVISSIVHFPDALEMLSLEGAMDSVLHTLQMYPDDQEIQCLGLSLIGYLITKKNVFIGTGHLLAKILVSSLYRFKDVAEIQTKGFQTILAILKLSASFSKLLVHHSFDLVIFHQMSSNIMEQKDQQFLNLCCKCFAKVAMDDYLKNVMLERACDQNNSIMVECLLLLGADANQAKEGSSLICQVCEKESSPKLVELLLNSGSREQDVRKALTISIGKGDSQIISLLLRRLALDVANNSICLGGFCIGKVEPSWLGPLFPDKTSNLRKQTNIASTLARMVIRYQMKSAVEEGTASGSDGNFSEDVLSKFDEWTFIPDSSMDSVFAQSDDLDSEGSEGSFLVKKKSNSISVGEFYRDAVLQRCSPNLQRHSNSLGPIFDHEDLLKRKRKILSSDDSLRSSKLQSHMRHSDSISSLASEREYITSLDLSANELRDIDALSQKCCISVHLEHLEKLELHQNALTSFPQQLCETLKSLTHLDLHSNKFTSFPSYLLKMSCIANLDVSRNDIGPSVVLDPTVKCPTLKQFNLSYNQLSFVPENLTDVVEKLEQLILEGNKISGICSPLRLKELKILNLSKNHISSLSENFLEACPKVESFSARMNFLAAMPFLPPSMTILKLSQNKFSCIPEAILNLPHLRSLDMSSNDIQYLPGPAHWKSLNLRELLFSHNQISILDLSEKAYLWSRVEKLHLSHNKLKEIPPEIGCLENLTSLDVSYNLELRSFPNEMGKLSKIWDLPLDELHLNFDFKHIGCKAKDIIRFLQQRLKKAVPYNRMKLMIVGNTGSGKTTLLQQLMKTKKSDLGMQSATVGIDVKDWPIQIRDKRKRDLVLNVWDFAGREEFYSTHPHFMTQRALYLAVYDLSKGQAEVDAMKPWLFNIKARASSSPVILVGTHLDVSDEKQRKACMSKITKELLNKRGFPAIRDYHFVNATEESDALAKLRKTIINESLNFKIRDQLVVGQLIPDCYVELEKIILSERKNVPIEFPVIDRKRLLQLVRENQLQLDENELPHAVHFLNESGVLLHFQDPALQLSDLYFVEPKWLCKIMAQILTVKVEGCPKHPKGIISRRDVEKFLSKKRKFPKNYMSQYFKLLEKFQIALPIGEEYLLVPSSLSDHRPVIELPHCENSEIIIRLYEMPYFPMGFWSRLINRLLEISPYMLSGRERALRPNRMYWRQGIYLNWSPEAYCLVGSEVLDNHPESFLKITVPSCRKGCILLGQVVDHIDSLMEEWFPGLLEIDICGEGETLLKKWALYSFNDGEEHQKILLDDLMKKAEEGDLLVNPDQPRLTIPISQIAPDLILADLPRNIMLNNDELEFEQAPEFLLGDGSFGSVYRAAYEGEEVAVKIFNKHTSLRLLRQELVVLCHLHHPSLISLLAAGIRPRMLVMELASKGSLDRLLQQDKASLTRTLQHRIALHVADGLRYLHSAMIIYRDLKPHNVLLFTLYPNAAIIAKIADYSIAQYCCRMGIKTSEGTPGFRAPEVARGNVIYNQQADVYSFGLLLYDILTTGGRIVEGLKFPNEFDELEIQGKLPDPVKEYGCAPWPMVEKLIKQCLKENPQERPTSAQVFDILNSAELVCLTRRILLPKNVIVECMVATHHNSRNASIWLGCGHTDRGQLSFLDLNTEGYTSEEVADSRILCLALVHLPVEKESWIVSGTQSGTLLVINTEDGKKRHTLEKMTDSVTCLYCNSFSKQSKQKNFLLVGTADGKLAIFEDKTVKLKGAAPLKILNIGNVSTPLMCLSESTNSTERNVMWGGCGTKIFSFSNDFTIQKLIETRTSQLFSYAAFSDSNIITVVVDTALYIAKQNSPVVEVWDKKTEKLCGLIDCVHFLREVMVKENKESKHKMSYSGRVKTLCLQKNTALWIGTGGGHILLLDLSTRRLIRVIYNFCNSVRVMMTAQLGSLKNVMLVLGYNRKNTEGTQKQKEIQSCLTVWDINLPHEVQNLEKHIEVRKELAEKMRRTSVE

Row | IC50 [nM] | Structure (SMILES)
1 | 12 | CCOc1nc(Nc2ccc(C(N3CCN(C)CC3)C(F)(F)F)cc2OC)nc2[nH]ccc12 (single isomer, unassigned) [Compound 29]
2 | 64 | CCOc1nc(Nc2ccc(C(N3CCN4CCC[C@@H]4C3)C(F)(F)F)cc2OC)nc2[nH]ccc12 (single isomer, unassigned) [Compound 31]
3 | 147 | COc1nc(Nc2ccc(C(N3CCOCC3)C(F)(F)F)cc2Cl)nc2[nH]ccc12 (single isomer, unassigned) [Compound 23]
4 | 6 | COCCOc1nc(Nc2ccc(C(N3CCOCC3)C(F)(F)F)cc2OC)nc2[nH]ccc12 (single isomer, unassigned) [Compound 11]
5 | 11 | CCOc1nc(Nc2ccc(C(N3C[C@@H]4C[C@H]3CO4)C(F)(F)F)cc2OC)nc2[nH]ccc12 (single isomer, unassigned) [Compound 10]
6 | 235 | CCc1nc(Nc2ccc(C(N3CCOCC3)C(F)(F)F)cc2OC)nc2[nH]ccc12 (single isomer, unassigned) [Compound 20]
7 | 38 | CCOc1nc(Nc2cc(F)c(C3(N4CCOCC4)CC3)cc2OC)nc2[nH]ccc12 [Compound 36]
8 | 8 | CCOc1nc(Nc2ccc(C(N3C[C@H]4C[C@@H]3CO4)C(F)(F)F)cc2OC)nc2[nH]ccc12 (single isomer, unassigned) [Compound 34]
9 | 7 | CCOc1nc(Nc2ccc(C3(N4CCOCC4)CC3)cc2OC)nc2[nH]ccc12 [Compound 3, 4-ethoxy-N-(2-methoxy-4-(1-morpholinocyclopropyl)phenyl)-7H-pyrrolo[2,3-d]pyrimidin-2-amine]
10 | 119 | CCOc1nc(Nc2ccc(C(N3CCOCC3)C(F)(F)F)cc2Cl)nc2[nH]ccc12 (single isomer, unassigned) [Compound 21]
11 | 138 | CCOc1nc(Nc2ccc(C(N3CCOCC3)C(F)(F)F)cc2Cl)nc2[nH]ccc12 (single isomer, unassigned) [Compound 22]
12 | 25 | COc1cc(C2(N3CCOCC3)CC2)c(F)cc1Nc1nc(OC)c2cc[nH]c2n1 [Compound 38]
13 | 47 | COc1cc(C(N2C[C@@H]3C[C@H]2CO3)C(F)(F)F)ccc1Nc1nc(OCC(F)(F)F)c2cc[nH]c2n1 (single isomer, unassigned) [Compound 7]
14 | 70 | CCOc1nc(Nc2ccc(C(N3CCOCC3)C(F)(F)F)cc2CC)nc2[nH]ccc12 (single isomer, unassigned) [Compound 26]
15 | 275 | CCOc1nc(Nc2ccc(C(C)(N3CCOCC3)C(F)(F)F)cc2OC)nc2[nH]ccc12 (single isomer, unassigned) [Compound 35, 4-ethoxy-N-(2-methoxy-4-(1,1,1-trifluoro-2-morpholinopropan-2-yl)phenyl)-7H-pyrrolo[2,3-d]pyrimidin-2-amine]
16 | 5 | COc1cc(C(N2CCOCC2)C(F)(F)F)ccc1Nc1nc(OCCO)c2cc[nH]c2n1 (single isomer, unassigned) [Compound 28]
17 | 55 | CCOc1nc(Nc2ccc(C(C)(N3CCOCC3)C(F)(F)F)cc2OC)nc2[nH]ccc12 (single isomer, unassigned) [Compound 2, 4-ethoxy-N-(2-methoxy-4-(1,1,1-trifluoro-2-morpholinylpropan-2-yl)phenyl)-7H-pyrrolo[2,3-d]pyrimidin-2-amine]
18 | 17 | COc1cc(C(N2CCOCC2)C(F)(F)F)ccc1Nc1nc(OCC(F)(F)F)c2cc[nH]c2n1 (single isomer, unassigned) [Compound 5]

Row | IC50 [nM] | Structure (SMILES)
19 | 332 | CCc1nc(Nc2ccc(C(N3CCOCC3)C(F)(F)F)cc2OC)nc2[nH]ccc12 (single isomer, unassigned) [Compound 19]
20 | 122 | COc1nc(Nc2ccc(C(N3CCOCC3)C(F)(F)F)cc2Cl)nc2[nH]ccc12 (single isomer, unassigned) [Compound 24]
21 | 5 | COc1cc(C(N2CCOCC2)C(F)(F)F)ccc1Nc1nc(OCCO)c2cc[nH]c2n1 (single isomer, unassigned) [Compound 27]
22 | 7 | CCOc1nc(Nc2ccc(C(N3C[C@@H]4C[C@H]3CO4)C(F)(F)F)cc2OC)nc2[nH]ccc12 (single isomer, unassigned) [Compound 9]
23 | 34 | CNc1nc(Nc2cc(F)c(C3(N4CCOCC4)CC3)cc2OC)ncc1C(F)(F)F [Compound 37]
24 | 204 | COc1cc(C(N2CCOCC2)C(F)(F)F)ccc1Nc1nc(C)c2cc[nH]c2n1 (single isomer, unassigned) [Compound 17]
25 | 52 | COc1cc(C(N2C[C@@H]3C[C@H]2CO3)C(F)(F)F)ccc1Nc1nc(OCC(F)(F)F)c2cc[nH]c2n1 (single isomer, unassigned) [Compound 8]
26 | 12 | COCCOc1nc(Nc2ccc(C(N3CCOCC3)C(F)(F)F)cc2OC)nc2[nH]ccc12 (single isomer, unassigned) [Compound 12]
27 | 141 | CCOc1nc(Nc2ccc(C(N3CCOCC3)C(F)(F)F)cc2CC)nc2[nH]ccc12 (single isomer, unassigned) [Compound 25]
28 | 10 | CCOc1nc(Nc2ccc(C(N3C[C@H]4C[C@@H]3CO4)C(F)(F)F)cc2OC)nc2[nH]ccc12 (single isomer, unassigned) [Compound 33]
29 | 27 | CCOc1nc(Nc2ccc(C(N3CCN4CCC[C@@H]4C3)C(F)(F)F)cc2OC)nc2[nH]ccc12 (single isomer, unassigned) [Compound 32]
30 | 30 | CCOc1nc(Nc2ccc(C(N3CCOCC3)C(F)(F)F)cc2F)nc2[nH]ccc12 (single isomer, unassigned) [Compound 14]
31 | 12 | COc1cc(C(N2CCOCC2)C(F)(F)F)ccc1Nc1nc(OCC(F)(F)F)c2cc[nH]c2n1 (single isomer, unassigned) [Compound 6]
32 | 430 | COc1cc(C(N2CCOCC2)C(F)(F)F)ccc1Nc1ncc2cc[nH]c2n1 (single isomer, unassigned) [Compound 16]
33 | 31 | CCOc1nc(Nc2ccc(C(N3CCOCC3)C(F)(F)F)cc2F)nc2[nH]ccc12 (single isomer, unassigned) [Compound 13]
34 | 22 | CCOc1nc(Nc2ccc(C(N3CCN(C)CC3)C(F)(F)F)cc2OC)nc2[nH]ccc12 (single isomer, unassigned) [Compound 30]
35 | 253 | COc1cc(C(N2CCOCC2)C(F)(F)F)ccc1Nc1nc(C)c2cc[nH]c2n1 (single isomer, unassigned) [Compound 18]
36 | 328 | COc1cc(C(N2CCOCC2)C(F)(F)F)ccc1Nc1ncc2cc[nH]c2n1 (single isomer, unassigned) [Compound 15]

Row | Structure (SMILES) | IC50 [nM]
37 | CCOc1nc(Nc2ccc(C(N3CCOCC3)C(F)(F)F)cc2OC)nc2[nH]ccc12 (single isomer, unassigned) [Compound 1, 4-ethoxy-N-(2-methoxy-4-(2,2,2-trifluoro-1-morpholinoethyl)phenyl)-7H-pyrrolo[2,3-d]pyrimidin-2-amine] | 12
